Where “and” joins values, the source holds several entries; their conditions need not be identical. Identical values can stand only once. Inconclusive results and toxic doses are left out.
System: B6C3F1 mice, Lewis lung carcinoma iv, survival T/C
Test: NCI In Vivo Anticancer Drug Screen. Data for tumor model Lewis Lung Carcinoma (intravenous) in B6C3F1 mice
Conditions: endpoint: median survival time, schedule: Q01DX009 (ip), higher = longer survival
Summary of the method: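 T/C ratio derived from survival of compound-treated versus vehicle-treated mice bearing transplantable tumors.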

[1] = dose: 12.5 mg/kg/injection, vehicle: saline with Tween-80
[2] = dose: 25.0 mg/kg/injection, vehicle: saline with Tween-80
[3] = dose: 50.0 mg/kg/injection, vehicle: saline with Tween-80
[4] = dose: 25.0 mg/kg/injection, vehicle: saline
[5] = dose: 50.0 mg/kg/injection, vehicle: saline
[6] = dose: 100.0 mg/kg/injection, vehicle: saline
[7] = dose: 1.25 mg/kg/injection, vehicle: saline with Tween-80
[8] = dose: 2.5 mg/kg/injection, vehicle: saline with Tween-80
[9] = dose: 5.0 mg/kg/injection, vehicle: saline with Tween-80
[10] = dose: 6.25 mg/kg/injection, vehicle: saline with Tween-80
[11] = dose: 12.5 mg/kg/injection, vehicle: saline

Question: With `C=CCCC(=O)CCCC(=O)O[C@@H]1[C@@H]2[C@H](CC1(C)C)[C@H](O)[C@@]13O[C@@H]1[C@H](O)[C@@]1(CO1)[C@@]23C` as the molecule, how does the T/C (dose: 3.12 micrograms/kg/injection, vehicle: Klucel (hydroxypropylcellulose) (HPC)) read?
Answer: The T/C was 113 % of control.

Question: What about the T/C (dose: 6.25 micrograms/kg/injection, vehicle: Klucel (hydroxypropylcellulose) (HPC)) of the same molecule?
Answer: Its T/C is 98 % of control.

Question: And the T/C (dose: 12.5 micrograms/kg/injection, vehicle: Klucel (hydroxypropylcellulose) (HPC))?
Answer: The T/C was 97 % of control.

Question: And the T/C (dose: 25.0 micrograms/kg/injection, vehicle: Klucel (hydroxypropylcellulose) (HPC))?
Answer: The T/C was 94 % of control.

Question: What about the T/C (dose: 50.0 micrograms/kg/injection, vehicle: Klucel (hydroxypropylcellulose) (HPC)) of the same molecule?
Answer: The T/C was 110 % of control.

Question: How did the T/C [1] turn out when `CCCC(=O)OCC1OC(n2cnc3c(=S)nc[nH]c32)C(OC(=O)CCC)C1OC(=O)CCC` (stereo not given) was run?
Answer: The T/C was 99 % of control.

Question: And the T/C [2]?
Answer: The T/C was 99 % of control.

Question: And the T/C [3]?
Answer: The T/C was 94 % of control.

Question: For `CC(=O)Oc1c[nH]c(=O)[nH]c1=O`, which T/C (dose: 12.5 mg/kg/injection, vehicle: distilled water + Tween-80) is on record?
Answer: Its T/C is 102 % of control.

Question: What about the T/C (dose: 25.0 mg/kg/injection, vehicle: distilled water + Tween-80) of the same molecule?
Answer: Its T/C is 95 % of control.

Question: What about the T/C (dose: 50.0 mg/kg/injection, vehicle: distilled water + Tween-80) of the same molecule?
Answer: The T/C was 92 % of control.

Question: What about the T/C (dose: 100.0 mg/kg/injection, vehicle: distilled water + Tween-80) of the same molecule?
Answer: Its T/C is 100 % of control.

Question: What about the T/C (dose: 200.0 mg/kg/injection, vehicle: distilled water + Tween-80) of the same molecule?
Answer: The T/C was 95 % of control.

Question: What about the T/C (dose: 400.0 mg/kg/injection, vehicle: distilled water + Tween-80) of the same molecule?
Answer: The T/C was 94 % of control.

Question: For `NC(Cc1ccc(N(CCCl)CCCl)cc1)C(=O)O` (stereo not given), which T/C (dose: 1.0 mg/kg/injection, vehicle: saline with Tween-80) is on record?
Answer: The T/C was 98 % of control.

Question: And the T/C (dose: 2.0 mg/kg/injection, vehicle: saline with Tween-80)?
Answer: Its T/C is 100 % of control.

Question: What about the T/C (dose: 4.0 mg/kg/injection, vehicle: saline with Tween-80) of the same molecule?
Answer: Its T/C is 104 % of control.

Question: What about the T/C (dose: 16.0 mg/kg/injection, vehicle: saline with Tween-80) of the same molecule?
Answer: The T/C was 101 % of control.

Question: `S=C(Nc1ccc(Cl)c(Cl)c1)N1c2ccccc2-n2cccc2C1c1cccnc1` (stereo not given) was tested. Which T/C (dose: 12.5 mg/kg/injection, vehicle: Klucel (hydroxypropylcellulose) (HPC)) did it give?
Answer: Its T/C is 106 % of control.

Question: What about the T/C (dose: 25.0 mg/kg/injection, vehicle: Klucel (hydroxypropylcellulose) (HPC)) of the same molecule?
Answer: The T/C was 109 % of control.

Question: What about the T/C (dose: 50.0 mg/kg/injection, vehicle: Klucel (hydroxypropylcellulose) (HPC)) of the same molecule?
Answer: Its T/C is 98 % of control.

Question: And the T/C (dose: 100.0 mg/kg/injection, vehicle: Klucel (hydroxypropylcellulose) (HPC))?
Answer: Its T/C is 102 % of control.

Question: And the T/C (dose: 200.0 mg/kg/injection, vehicle: Klucel (hydroxypropylcellulose) (HPC))?
Answer: Its T/C is 113 % of control.

Question: `CCCCCC[C@@H](O)C/C=C\CCCCCCCC(=O)OCCO` was tested. Which T/C [4] did it give?
Answer: The T/C was 91 % of control.

Question: What about the T/C [5] of the same molecule?
Answer: The T/C was 100 % of control.

Question: And the T/C [6]?
Answer: Its T/C is 99 % of control.

Question: And the T/C (dose: 200.0 mg/kg/injection, vehicle: saline)?
Answer: The T/C was 101 % of control.

Question: What about the T/C (dose: 400.0 mg/kg/injection, vehicle: saline) of the same molecule?
Answer: The T/C was 99 % of control.

Question: And the T/C (dose: 800.0 mg/kg/injection, vehicle: saline)?
Answer: The T/C was 100 % of control.

Question: `CCOC(=O)Nc1cc2c(c(N)n1)N=C(c1ccccc1)CN2` was tested. Which T/C [7] did it give?
Answer: The T/C was 105 % of control.

Question: And the T/C [8]?
Answer: Its T/C is 105 % of control.

Question: And the T/C [9]?
Answer: The T/C was 100 % of control.

Question: Which results are given for `C[CH2][Ge]([CH2]C)[CH2]C.C[CH2][Ge]([CH2]C)[CH2]C.C[CH2][Ge]([CH2]C)[O][Ge]([CH2]C)[CH2]C`?
Answer: T/C [10]: 105 % of control; T/C [1]: 106 % of control; T/C [2]: 106 % of control; T/C [3]: 101 % of control; T/C (dose: 100.0 mg/kg/injection, vehicle: saline with Tween-80): 113 % of control

Question: Which results are given for `Nc1ccc(Cn2ccc3c4c(N)nc(N)nc4ccc32)cc1`?
Answer: T/C [7]: 105 % of control; T/C [8]: 107 % of control; T/C [9]: 107 % of control; T/C (dose: 10.0 mg/kg/injection, vehicle: saline with Tween-80): 108 % of control

Question: For `COc1cc([C@@H]2c3cc4c(cc3[C@@H](OC3OC5COC(C)OC5C(O)C3O)[C@H]3COC(=O)[C@H]23)OCO4)cc(OC)c1O` (stereo not given in full), which T/C (dose: 0.5 mg/kg/injection, vehicle: Klucel (hydroxypropylcellulose) (HPC)) is on record?
Answer: The T/C was 101 % of control.

Question: And the T/C (dose: 1.0 mg/kg/injection, vehicle: Klucel (hydroxypropylcellulose) (HPC))?
Answer: The T/C was 102 % of control.

Question: And the T/C (dose: 2.0 mg/kg/injection, vehicle: Klucel (hydroxypropylcellulose) (HPC))?
Answer: The T/C was 113 % of control.

Question: What about the T/C (dose: 2.0 mg/kg/injection, vehicle: suspension in saline) of the same molecule?
Answer: Its T/C is 113 % of control and 121 % of control.

Question: And the T/C (dose: 4.0 mg/kg/injection, vehicle: Klucel (hydroxypropylcellulose) (HPC))?
Answer: Its T/C is 124 % of control.

Question: And the T/C (dose: 4.0 mg/kg/injection, vehicle: suspension in saline)?
Answer: The T/C was 109 % of control.

Question: And the T/C (dose: 8.0 mg/kg/injection, vehicle: suspension in saline)?
Answer: The T/C was 151 % of control.

Question: What about the T/C (dose: 16.0 mg/kg/injection, vehicle: suspension in saline) of the same molecule?
Answer: The T/C was 166 % of control and 252 % of control.

Question: With `CS(=O)(=O)CS(=O)(=O)OCCCl` as the molecule, how does the T/C [11] read?
Answer: The T/C was 107 % of control.

Question: What about the T/C [4] of the same molecule?
Answer: The T/C was 120 % of control.

Question: What about the T/C [5] of the same molecule?
Answer: Its T/C is 284 % of control.

Question: And the T/C [6]?
Answer: Its T/C is 239 % of control.

Question: With `NC(CNC(=O)CBr)C(=O)O` (stereo not given) as the molecule, how does the T/C (dose: 6.25 mg/kg/injection, vehicle: water) read?
Answer: The T/C was 102 % of control.

Question: And the T/C (dose: 12.5 mg/kg/injection, vehicle: water)?
Answer: Its T/C is 95 % of control.

Question: What about the T/C (dose: 25.0 mg/kg/injection, vehicle: water) of the same molecule?
Answer: Its T/C is 109 % of control.

Question: What about the T/C (dose: 50.0 mg/kg/injection, vehicle: water) of the same molecule?
Answer: The T/C was 109 % of control.

Question: How did the T/C (dose: 1.56 mg/kg/injection, vehicle: saline) turn out when `O=C1C(O)=C(c2ccccc2)C(=O)C(O)=C1c1ccccc1` was run?
Answer: The T/C was 98 % of control.

Question: And the T/C (dose: 3.12 mg/kg/injection, vehicle: saline)?
Answer: The T/C was 98 % of control and 117 % of control.

Question: And the T/C [10]?
Answer: Its T/C is 99 % of control.

Question: And the T/C (dose: 6.25 mg/kg/injection, vehicle: saline)?
Answer: The T/C was 99 % of control and 118 % of control.

Question: And the T/C [1]?
Answer: Its T/C is 101 % of control.

Question: What about the T/C [11] of the same molecule?
Answer: The T/C was 108 % of control and 113 % of control.

Question: And the T/C [2]?
Answer: The T/C was 101 % of control.

Question: And the T/C [4]?
Answer: The T/C was 98 % of control and 104 % of control.

Question: And the T/C [3]?
Answer: Its T/C is 102 % of control.

Question: And the T/C [5]?
Answer: The T/C was 94 % of control and 99 % of control.

Question: Which results are given for `OCC(O)C(O)C(O)C(O)CO` (stereo not given)?
Answer: T/C (dose: 75.0 mg/kg/injection, vehicle: saline): 100 % of control; T/C (dose: 150.0 mg/kg/injection, vehicle: saline): 96 % of control; T/C (dose: 300.0 mg/kg/injection, vehicle: saline): 92 % of control; T/C (dose: 600.0 mg/kg/injection, vehicle: saline): 95 % of control; T/C (dose: 1200.0 mg/kg/injection, vehicle: saline): 98 % of control

Question: With `NCCCC(N)(C(=O)O)C(F)F` (stereo not given) as the molecule, how does the T/C (dose: 50.0 mg/kg/injection, vehicle: distilled water + alcohol) read?
Answer: Its T/C is 100 % of control.

Question: And the T/C (dose: 100.0 mg/kg/injection, vehicle: distilled water + alcohol)?
Answer: The T/C was 104 % of control.

Question: And the T/C (dose: 200.0 mg/kg/injection, vehicle: distilled water + alcohol)?
Answer: Its T/C is 105 % of control.

Question: And the T/C (dose: 400.0 mg/kg/injection, vehicle: distilled water + alcohol)?
Answer: Its T/C is 103 % of control.

Question: What about the T/C (dose: 800.0 mg/kg/injection, vehicle: distilled water + alcohol) of the same molecule?
Answer: The T/C was 96 % of control.

Question: What does the source list for `CO[C@H]1Nc2c(ccc(C)c2O)C(=O)N2C=C(/C=C/C(N)=O)C[C@@H]12`?
Answer: T/C (dose: 0.06 mg/kg/injection, vehicle: saline + alcohol): 105 % of control; T/C (dose: 0.12 mg/kg/injection, vehicle: saline + alcohol): 100 % of control; T/C (dose: 0.25 mg/kg/injection, vehicle: saline + alcohol): 113 % of control
